Where two headings read alike, the source gives them in different places.
How the values were obtained:
[1] = Cytotoxicity in mock-infected MT-4 cells; type: cell-based; conditions: human, mock-infected (uninfected) MT-4 cells, concentration reducing viability of mock-infected MT4 cells by 50%; mean ± SD
Experimental: (§1) First, the ability of the compounds to compete with fluorescently labeled CXCL12 (CXCL12^AF647) for binding at CXCR4 was determined. Second, since binding of CXCL12 to CXCR4 results into a transient increase of cytosolic calcium levels, the inhibition of this CXCL12-induced calcium mobilization by the various compounds was also investigated. […] In parallel, the cytotoxicity of the compounds for uninfected MT-4 cells was assessed. […] The CD4 cell line MT-4 was obtained from the American Type Culture Collection (Rockville, MD, USA) and cultured in RPMI 1640 medium (Gibco BRL, Gaithersburg, MD, USA) with 10% heat-inactivated fetal calf serum (Biowhittaker Europe, Verviers, Belgium) and 2 mmol/L L-glutamine (Gibco BRL). The anti-HIV-1 and anti-HIV-2 activity in MT-4 cells was determined using a tetrazolium-based colorimetric assay. This assay been described in detail before. Threefold dilutions of the drugs in 100 μL medium were added to duplicate wells of 96-well flat bottom plates (Iwaki Glass). […] The cytopathic effect induced by the virus was checked regularly microscopically. […] The absorbance was then recorded at 490 nm with a 96-well plate reader and compared with four cell control replicates (cells without virus and drugs) and four virus control wells (cells with virus but without drug). Each assay was performed at least three times. […] Absorbance was recorded using the VersaMax ELISA™ microplate reader (Molecular Devices) and analyzed with the Softmax Pro® software (Molecular Devices, Version 4.0, www.moleculardevices.com, accessed on 10 January 2015). Using mock-infected cells, the cytotoxic concentration 50 (CC50) of each compound was investigated.

[2] = target: T1, CXCR4 (Homo sapiens, UniProt P61073); experiment: CXCL12AF647 competition binding assay with Jurkat cells (flow cytometry); parameters: endogenous in cells; host or cells: Jurkat cells
Experimental: (§2) First, the ability of the compounds to compete with fluorescently labeled CXCL12 (CXCL12^AF647) for binding at CXCR4 was determined. […] Finally, given the role of CXCR4 as a major coreceptor for HIV entry, the antiviral activity of the compounds against the X4-tropic wild type HIV-1 NL4–3 strain and the HIV-2 ROD strain was determined in MT-4 cells. In parallel, the cytotoxicity of the compounds for uninfected MT-4 cells was assessed.
The CXCL12^AF647 binding assay with Jurkat cells has been described previously. Briefly, Jurkat cells were resuspended in assay buffer [Hank’s Balanced Salt Solution (HBSS, Thermo Fisher Scientific), 20 mM HEPES buffer, 0.2% bovine serum albumin (Sigma-Aldrich), pH 7.4] at 3 × 10^5 cells per sample and then treated with various concentrations of the compound at room temperature for 15 min. Afterwards, the cells were incubated with 2.9 nM CXCL12^AF647 (in assay buffer) at room temperature for 30 min in the dark. Cells were fixed in 1% paraformaldehyde in DPBS and specific CXCL12^AF647 binding [i.e., mean fluorescence intensity (MFI)] was quantified by flow cytometry (FACSCanto^TM II; Becton Dickinson). Data were analyzed with FlowJo® Software. The 50% inhibitory concentration (IC50) was calculated for each compound relative to the negative (i.e., autofluorescence of untreated and unlabeled cells) and positive (i.e., untreated cells exposed to CXCL12^AF647 only) control.

[3] = tested on: HIV-2 ROD; experiment: Anti-HIV-2 assay in MT-4 cells (tetrazolium-based colorimetric, cytopathic effect); type: cell-based; conditions: Human immunodeficiency virus 2, MT4
Experimental: (§3) First, the ability of the compounds to compete with fluorescently labeled CXCL12 (CXCL12^AF647) for binding at CXCR4 was determined. Second, since binding of CXCL12 to CXCR4 results into a transient increase of cytosolic calcium levels, the inhibition of this CXCL12-induced calcium mobilization by the various compounds was also investigated. […] In parallel, the cytotoxicity of the compounds for uninfected MT-4 cells was assessed. […] The CD4 cell line MT-4 was obtained from the American Type Culture Collection (Rockville, MD, USA) and cultured in RPMI 1640 medium (Gibco BRL, Gaithersburg, MD, USA) with 10% heat-inactivated fetal calf serum (Biowhittaker Europe, Verviers, Belgium) and 2 mmol/L L-glutamine (Gibco BRL). […] The anti-HIV-1 and anti-HIV-2 activity in MT-4 cells was determined using a tetrazolium-based colorimetric assay. […] Threefold dilutions of the drugs in 100 μL medium were added to duplicate wells of 96-well flat bottom plates (Iwaki Glass). […] The cytopathic effect induced by the virus was checked regularly microscopically. […] Each assay was performed at least three times. […] Absorbance was recorded using the VersaMax ELISA™ microplate reader (Molecular Devices) and analyzed with the Softmax Pro® software (Molecular Devices, Version 4.0, www.moleculardevices.com, accessed on 10 January 2015). Using mock-infected cells, the cytotoxic concentration 50 (CC50) of each compound was investigated.

[4] = tested on: HIV-1 NL4.3; experiment: Anti-HIV-1 assay in MT-4 cells (tetrazolium-based colorimetric, cytopathic effect); type: cell-based; conditions: Human immunodeficiency virus 1, MT4
Experimental: as §3

[5] = target: T1, CXCR4; experiment: CXCL12-induced calcium mobilization assay in U87.CD4.CXCR4 cells (FLIPR); type: cell-based; conditions: concentration needed to inhibit CXCL12-induced calcium signaling by 50%, 6.25 nM CXCL12, mean ± SD
Experimental: as §2
The calcium mobilization assay has been described in detail previously. U87.CD4.CXCR4 cells (2 × 10^4 cells per well in DMEM/10% FBS/0.01 M HEPES) were seeded in gelatin-coated (Sigma-Aldrich; 0.1% gelatin in DPBS) black-walled 96-well plates and incubated overnight at 37 °C and 5% CO2. The next day, cells were loaded with the fluorescent calcium indicator Fluo-2 acetoxymethyl (AM) ester (4 μM; Abcam) and incubated at room temperature in the dark for 45 min. Then, cells were incubated with various concentrations of the compounds for 10 min prior to the addition of 6.25 nM CXCL12 (in assay buffer). Fluctuations in intracellular calcium levels were measured in real time by the FLIPR Tetra® (Molecular Devices, Sunnyvale, CA, USA) in all 96 wells simultaneously. The response over baseline (after CXCL12 addition) was calculated with the ScreenWorks 4.0® software (Molecular Devices, Version 4.0, www.moleculardevices.com, accessed on 10 January 2015) by dividing the obtained relative light units (RLUs) through the base line measured just before CXCL12 addition. From this the IC50 value for each compound was determined taking into account the negative (i.e., untreated cells without CXCL12 stimulation) and positive (i.e., untreated cells with CXCL12 addition) control samples.

[6] = tested on: MT-4 cells; experiment: Cytotoxicity in mock-infected MT-4 cells; type: cell-based
Experimental: as §1

[7] = concentration needed to inhibit CXCL12 receptor binding by 50%, Jurkat cells, 2.9 nM CXCL12AF647, mean ± SD
[8] = 50% protection of MT-4 cells against HIV-induced cytopathicity, mean ± SD, read-out: HIV-2 ROD EC50
[9] = 50% protection of MT-4 cells against HIV-induced cytopathicity, mean ± SD, read-out: HIV-1 NL4.3 EC50
[10] = MT-4 cells, read-out: EC50 against HIV-2
[11] = MT-4 cells, read-out: EC50 against HIV-1

T1 sequence (P61073 whole entry): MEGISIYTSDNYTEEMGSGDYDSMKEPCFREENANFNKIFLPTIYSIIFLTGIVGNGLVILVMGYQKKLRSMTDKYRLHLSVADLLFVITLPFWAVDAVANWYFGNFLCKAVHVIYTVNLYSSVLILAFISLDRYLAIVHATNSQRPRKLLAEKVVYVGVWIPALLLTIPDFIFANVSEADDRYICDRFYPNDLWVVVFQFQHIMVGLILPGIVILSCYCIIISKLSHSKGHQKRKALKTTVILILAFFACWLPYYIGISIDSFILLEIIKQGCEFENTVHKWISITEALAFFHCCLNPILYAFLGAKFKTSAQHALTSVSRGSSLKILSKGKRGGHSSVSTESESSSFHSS

Row | SMILES | CC50 at 4 d [1] | IC50 [2, 7] | EC50 [3, 8] | EC50 [4, 9] | IC50 [5] | cytotoxicity for the MT4 cell line (in words) [6] | CC50 ([6]; concentration reducing viability of mock-infected MT4 cells by 50%, mean ± SD) | EC50 [3, 10] | EC50 [4, 11] | IC50 ([2]; competition with CXCL12 for binding to CXCR4)
1 | COc1ccc2c(CN(CCCCN)Cc3ncccc3C)nccc2c1 [Compound 24b, N1-((6-Methoxyisoquinolin-1-yl)methyl)-N1-((3-methylpyridin-2-yl)methyl)butane-1,4-diamine] | 9.27 ± 0.46 µM | 890 ± 460 nM | > 9270 nM | > 9270 nM | 3850 ± 190 nM |  |  |  |  | 
2 | Cc1cccnc1CN(CCCCN)Cc1nccc2cc(F)ccc12 [Compound 24c, N1-((6-Fluoroisoquinolin-1-yl)methyl)-N1-((3-methylpyridin-2-yl)methyl)butane-1,4-diamine] | 31 µM | 0.64 ± 0.17 nM | 3.8 ± 0.29 nM | 6.2 ± 5.9 nM | 6.1 ± 1 nM | lack cytotoxicity | 30.8 ± 0.88 µM | < 100 nM | < 100 nM | 
3 | Cc1cccnc1CN(CCCCN)Cc1nccc2cc(Br)ccc12 [Compound 24d, N1-((6-Bromoisoquinolin-1-yl)methyl)-N1-((3-methylpyridin-2-yl)methyl)butane-1,4-diamine] | 29.5 ± 9.76 µM | 39 ± 24 nM | 2540 ± 910 nM | 2540 ± 910 nM | 690 ± 230 nM |  |  |  |  | 
4 | COc1cc2ccnc(CN(CCCCN)C3CCCc4cccnc43)c2cc1OC (stereo not drawn) [Compound 19a, N1-((6,7-Dimethoxyisoquinolin-1-yl)methyl)-N1-(5,6,7,8-tetrahydroquinolin-8-yl)butane-1,4-diamine] | > 100 µM | 7.2 ± 3.2 nM | 42 ± 13 nM | 74 ± 27 nM | 25 ± 8.1 nM |  |  |  |  | 
5 | Cc1cccnc1CN(CCCCN)Cc1ccccn1 [Compound 25, N1-((3-Methylpyridin-2-yl)methyl)-N1-(pyridin-2-ylmethyl)butane-1,4-diamine] | 79.9 ± 13.1 µM | 6.2 ± 0.57 nM | 170 ± 160 nM | 230 ± 210 nM | 180 ± 23 nM |  |  |  |  | 0.6 nM
6 | COc1cc2ccnc(CN(CCCCN)Cc3ncccc3C)c2cc1OC [Compound 24a, N1-((6,7-dimethoxyisoquinolin-1-yl)methyl)-N1-((3-methylpyridin-2-yl)methyl)butane-1,4-diamine] | > 100 µM | 3.2 ± 0.99 nM | 24 ± 1.8 nM | 23 ± 8 nM | 13 ± 5.3 nM | lack cytotoxicity |  | < 100 nM | < 100 nM | 
7 | COc1ccc2c(CN(CCCCN)C3CCCc4cccnc43)nccc2c1 (stereo not drawn) [Compound 19b, N1-((6-Methoxyisoquinolin-1-yl)methyl)-N1-(5,6,7,8-tetrahydroquinolin-8-yl)butane-1,4-diamine] | 11.1 ± 0.54 µM | 2.5 ± 1.2 nM | 77 ± 19 nM | 61 ± 31 nM | 28 ± 4.9 nM |  |  |  |  | 
8 | Cc1cccnc1CN(CCCCN)Cc1nccc2ccccc12 [Compound 24e, N1-(Isoquinolin-1-ylmethyl)-N1-((3-methylpyridin-2-yl)methyl)butane-1,4-diamine] | 40.9 ± 6.53 µM | 26 ± 14 nM | 2290 ± 350 nM | 770 ± 290 nM | 930 ± 720 nM |  |  |  |  | 
9 | NCCCCN(Cc1nccc2cc(F)ccc12)C1CCCc2cccnc21 (stereo not drawn) [Compound 19c, N1-((6-Fluoroisoquinolin-1-yl)methyl)-N1-(5,6,7,8-tetrahydroquinolin-8-yl)butane-1,4-diamine] | 18.1 ± 6.82 µM | 8.9 ± 5.6 nM | 11 ± 5.6 nM | 16 ± 12 nM | 33 ± 21 nM |  |  |  |  | 
10 | NCCCCN(Cc1ccccn1)C1CCCc2cccnc21 (stereo not drawn) [Compound 20, N1-(Pyridin-2-ylmethyl)-N1-(5,6,7,8-tetrahydroquinolin-8-yl)butane-1,4-diamine] | 55.5 ± 0.72 µM |  | 58 ± 22 nM | 58 ± 71 nM |  | lack cytotoxicity |  | < 100 nM | < 100 nM | 
11 | c1cc(CN2CCCNCCNCCCNCC2)ccc1CN1CCCNCCNCCCNCC1 [Plerixafor, reference compound] | 6.29 ± 0.72 µM |  | 8.1 ± 4.2 nM | 4.9 ± 3.2 nM |  |  |  |  |  | 
12 | NCCCCN(Cc1nccc2ccccc12)C1CCCc2cccnc21 (stereo not drawn) [Compound 19e, N1-(Isoquinolin-1-ylmethyl)-N1-(5,6,7,8-tetrahydroquinolin-8-yl)butane-1,4-diamine] | 26.7 ± 18.6 µM | 9.2 ± 4.2 nM | 26 ± 30 nM | 84 ± 15 nM | 130 ± 41 nM | lack cytotoxicity |  | < 100 nM | < 100 nM | 
13 | NCCCCN(Cc1nccc2cc(Br)ccc12)C1CCCc2cccnc21 (stereo not drawn) [Compound 19d, N1-((6-Bromoisoquinolin-1-yl)methyl)-N1-(5,6,7,8-tetrahydroquinolin-8-yl)butane-1,4-diamine] | 43.6 ± 1.77 µM | 26 ± 1.7 nM | 550 ± 360 nM | 550 ± 360 nM | 440 ± 210 nM |  |  |  |  | 
